{"source": "paper PMC6934184", "about": "“Selective DNA-PKcs inhibition extends the therapeutic index of localized radiotherapy and chemotherapy” (The Journal of Clinical Investigation, 2019)", "target": "T1, MAP2K6 (MKK6) (Homo sapiens, UniProt P52564)", "T1 construct": "purchased Thermo Fisher Scientific (Life Technologies) SelectScreen", "T1 sequence (P52564 whole entry)": "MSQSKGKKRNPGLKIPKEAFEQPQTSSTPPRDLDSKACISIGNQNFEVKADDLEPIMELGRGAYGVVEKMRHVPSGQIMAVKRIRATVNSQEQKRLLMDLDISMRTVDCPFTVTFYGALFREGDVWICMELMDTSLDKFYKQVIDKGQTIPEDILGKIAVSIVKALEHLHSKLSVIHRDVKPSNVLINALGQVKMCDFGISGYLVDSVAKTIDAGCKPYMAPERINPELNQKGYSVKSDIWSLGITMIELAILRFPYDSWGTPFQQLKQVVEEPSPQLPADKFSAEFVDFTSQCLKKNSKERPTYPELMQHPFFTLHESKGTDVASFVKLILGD", "assay": "SelectScreen Z'LYTE", "type": "biochemical", "conditions": "ATP 100 µM", "summary_of_the_method": "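NU5455 was profiled across the SelectScreen Broad panel of kinase activity and binding assays. Z'LYTE reactions such as CSF1R ran at apparent Km ATP, while the Adapta CAMK1 assay used ATP listed as 10. Values are given as percent.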"}
{"smiles": "CN(C(=O)CN1CCOCC1)c1ccc2sc3c(-c4cccc5c(=O)cc(N6CC7CCC(C6)O7)oc45)cccc3c2c1", "note": "[NU5455]", "values": [{"measurement": "inhibition at 1 µM", "value": 1.8, "unit": "%"}]}
